Common to all, as to format: physicochemical
Data set [1] is described as follows: Maximum absorption wavelength (λmax) after color development, spectrophotometer MCPD3000. As to conditions: after color development. Here is the method: (§1) • [1] Maximum Absorption Wavelength (λmax): The maximum absorption wavelength after color development, measured using a spectrophotometer (instantaneous multichannel photodetector MCPD3000) manufactured by Otsuka Electronics Co., Ltd. was used as an indicator for the color tone during the color development. • [2] 23°C Color Optical Density (A23): A difference between an absorbancy measured after light irradiation at 23°C for 240 seconds {ε(240)} and an absorbancy without light irradiation ε(0) at the maximum absorption wavelength was used as an indicator for the color optical density. […] 35°C Color Optical Density (A35): A difference between an absorbancy measured after light irradiation at 35°C for 240 seconds {ε(240)} and an absorbancy without light irradiation ε(0) at the first and second absorption wavelengths was used as an indicator for the color optical density. […] 23°C color fading half-life [τ1/2 (sec.)]: A time required for the absorbancy of the sample at the maximum absorption wavelength to decrease to 1/2 of {ε(240)-ε(0)} when the light irradiation is terminated after the light irradiation at 23°C for 240 seconds, was used as an indicator for the color fading speed. The shorter this time, the higher the color fading speed. • [6] Residual rate (A90/A0×100): The obtained photochromic plastic lens was subjected to accelerated deterioration using a xenon weather meter X25 manufactured by Suga Test Instruments Co., Ltd. for 90 hours. Subsequently, the color optical density was evaluated before and after the test, then a color optical density before the test (A0) and a color optical density after the test (A90) were measured, and a ratio (A90/A0) was defined as a residual rate. The residual rate was used as an indicator for a color developing durability. The higher the residual rate, the higher the color developing durability.

A short description of data set [2]: High-temperature color development rate (A35/A23×100), temperature dependency. Here is the method:
as §1

Data set [3] can be described thus: Residual rate (A90/A0×100) after 90 h accelerated deterioration in xenon weather meter X25, color developing durability. As to conditions: after 90 h accelerated deterioration. Here is the method:
as §1

Setting [4] is: photochromic cured product, thickness 1 mm (kneading method).
Setting [5] is: photochromic laminate prepared by coating method.

SMILES strings stand for the structures. Values joined by “and” are separate entries in the source; they are usually repeats but may differ in a detail not shown here. Equal entries are not always repeated.

Regarding `COCCCC1(CCCOC)c2ccccc2-c2c1c1c(c3cc(OC)c(N4CC(C)c5ccccc54)cc23)OC(c2ccc(OC)cc2)(c2ccc(OC)cc2)C=C1` (stereo not drawn) [Formula (39A)], the Maximum absorption wavelength in data set [1] (binder sheet (binder method)) came to 533 nm; in data set [1] (setting [4]) it was 537 nm; in data set [1] (setting [5]), 533 nm. For the same compound, the “A35/A23 *100” value is listed as 75% in data set [2] (binder sheet (binder method)), 76% in data set [2] (setting [4]) and 75% in data set [2] (setting [5]). The Residual rate in data set [3] (binder sheet (binder method)) amounted to 85%; in data set [3] (setting [4]) it was 76%; in data set [3] (setting [5]) it was 71%.

`COCCOCCOCCC1(CCOCCOCCOC)c2ccccc2-c2c1c1c(c3cc(OC)c(N4CCc5cc(F)ccc54)cc23)OC(c2ccc(OC)cc2)(c2ccc(OC)cc2)C=C1` [Formula (50A)]: the Maximum absorption wavelength in data set [1] (binder sheet (binder method)) is 522 nm; in data set [1] (setting [4]), 526 nm; in data set [1] (setting [5]), 522 nm. Also, the “A35/A23 *100” value in data set [2] (binder sheet (binder method)) was 70%; in data set [2] (setting [4]) it was 71%; in data set [2] (setting [5]) it was 70%. The Residual rate in data set [3] (binder sheet (binder method)) stood at 84%; in data set [3] (setting [4]) it was 76%; in data set [3] (setting [5]) it was 70%.

For `CCC1(CC)c2cc(C)ccc2-c2c1c1c(c3cc(C)c(N4CCc5ccccc54)cc23)OC(c2ccc(C)cc2)(c2ccc(OC)cc2)C=C1` (stereo not drawn) [Formula (42A)], the Maximum absorption wavelength in data set [1] (binder sheet (binder method)) was determined as 535 nm; in data set [1] (setting [4]), 539 nm; in data set [1] (setting [5]) it was 535 nm. Moreover, the “A35/A23 *100” value is on record as 75% in data set [2] (binder sheet (binder method)), 76% in data set [2] (setting [4]) and 75% in data set [2] (setting [5]). Further, the Residual rate in data set [3] (binder sheet (binder method)) amounted to 85%; in data set [3] (setting [4]) it was 75%; in data set [3] (setting [5]) it was 70%.

As to `CCC1(CC)CCC2(CC1)c1cc(OC(F)(F)F)ccc1-c1c2c2c(c3cc(OC)c(N4CCc5ccccc54)cc13)OC(c1ccc(OC)cc1)(c1ccc(OCCCO[Si](C)(C)CC[Si](O[Si](C)(C)C)(O[Si](C)(C)C)O[Si](C)(C)C)cc1)C=C2` (stereo not drawn) [Formula (74A)], the Maximum absorption wavelength is given as 522 nm in data set [1] (binder sheet (binder method)), 526 nm in data set [1] (setting [4]) and 522 nm in data set [1] (setting [5]). Moreover, the “A35/A23 *100” value was 64% in data set [2] (binder sheet (binder method)), 65% in data set [2] (setting [4]) and 64% in data set [2] (setting [5]). Further, the Residual rate stood at 83% in data set [3] (binder sheet (binder method)), 77% in data set [3] (setting [4]) and 72% in data set [3] (setting [5]).

Take `COc1ccc(C2(c3ccc(N(c4ccccc4)c4ccccc4)cc3)C=Cc3c4c(c5cc(N6CCc7ccccc76)c(OC)cc5c3O2)-c2ccccc2C42CCC3(CCCCC3)CC2)cc1` (stereo not drawn) [Formula (57A)]: the Maximum absorption wavelength in data set [1] (binder sheet (binder method)) and in data set [1] (setting [5]) was 548 nm throughout. For the same compound, the “A35/A23 *100” value in data set [2] (binder sheet (binder method)) and in data set [2] (setting [5]) was 70% throughout. Besides, the Residual rate is recorded as 80% in data set [3] (binder sheet (binder method)) and 65% in data set [3] (setting [5]).

Turning to `CCC1(CC)CCC2(CC1)c1cc(-c3ccccc3)ccc1-c1c2c2c(c3cc(OC)c(N4CCc5ccccc54)cc13)OC(c1ccc(C)cc1)(c1ccc(N(C)c3ccccc3)cc1)C=C2` (stereo not drawn) [Formula (60A)], in data set [1] (setting [5]), the Maximum absorption wavelength is 535 nm and 595 nm. Also, in data set [2] (setting [5]), the “A35/A23 *100” value was found to be 71%. The compound further yielded a Residual rate in data set [3] (setting [5]) of 69%.

On to `COc1ccc(C2(c3ccc(OC)cc3)C=Cc3c4c(c5cc(N6CCc7ccccc76)c(OC)cc5c3O2)-c2ccccc2C4(C)C)cc1` [Formula (28A)], for which the Maximum absorption wavelength was 532 nm in data set [1] (binder sheet (binder method)), 536 nm in data set [1] (setting [4]) and 532 nm in data set [1] (setting [5]). The results for the “A35/A23 *100” value in data set [2] (binder sheet (binder method)), in data set [2] (setting [4]) and in data set [2] (setting [5]) were 74%, 75% and 74%, respectively. For the same compound, the Residual rate in data set [3] (binder sheet (binder method)) is listed as 88%; in data set [3] (setting [4]), 79%; in data set [3] (setting [5]), 74%.

The record behind these values is patent publication EP4692071A1, “PHOTOCHROMIC COMPOUND, NAPHTHOL DERIVATIVE, CURABLE COMPOSITION, OPTICAL ARTICLE, LENS, AND EYEGLASS” (TOKUYAMA CORPORATION, priority 2023, dated 2024).
